Experimental data reported in patent US20090239845A1, “PYRAZOLE COMPOUNDS AS PROSTAGLANDIN RECEPTORS LIGANDS” (priority 2005, published 2009).
Counter-ions that a name gives are not always drawn.

Assays:
human EP3 receptor = target: T1, human EP3 receptor (Homo sapiens, UniProt P43115); test: human EP3 calcium mobilisation assay; type: cell-based; conditions: negative logarithm10 of the antagonist dissociation constant; CHO-K1 cells, PGE2; free bases or sodium salts; averages of a number of experiments; read-out: functional pKi value (converted)
T1 construct: expressed in transfected cells; host or cells: CHO-K1
T1 sequence (P43115 1-390): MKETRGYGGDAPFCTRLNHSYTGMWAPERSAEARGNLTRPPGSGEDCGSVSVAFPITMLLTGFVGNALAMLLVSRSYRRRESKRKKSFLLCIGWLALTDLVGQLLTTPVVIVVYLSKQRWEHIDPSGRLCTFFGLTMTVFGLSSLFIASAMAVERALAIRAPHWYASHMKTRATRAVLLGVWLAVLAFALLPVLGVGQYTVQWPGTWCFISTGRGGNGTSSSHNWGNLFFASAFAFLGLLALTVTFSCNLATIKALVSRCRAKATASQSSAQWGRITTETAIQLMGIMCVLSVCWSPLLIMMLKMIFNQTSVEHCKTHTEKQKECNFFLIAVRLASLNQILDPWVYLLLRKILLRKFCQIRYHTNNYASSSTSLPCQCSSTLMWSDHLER
Experimental: Briefly, the antagonist properties of compounds are assessed by their ability to inhibit the mobilisation of intracellular calcium ([Ca^2+]i) in response to activation of EP1 or EP3 receptors by the natural agonist hormone prostaglandin E2 (PGE2). Increasing concentrations of antagonist reduce the amount of calcium that a given concentration of PGE2 can mobilise. The net effect is to displace the PGE2 concentration-effect curve to higher concentrations of PGE2. The amount of calcium produced is assessed using a calcium-sensitive fluorescent dye such as Fluo-4, AM and a suitable instrument such as a Fluorimetric Imaging Plate Reader (FLIPR). Increasing amounts of [Ca^2+]i produced by receptor activation increase the amount of fluorescence produced by the dye and give rise to an increasing signal. The signal may be detected using the FLIPR instrument and the data generated may be analysed with suitable curve-fitting software.
The human EP1 or EP3 calcium mobilisation assay (hereafter referred to as ‘the calcium assay’) utilises Chinese hamster ovary-K1 (CHO-K1) cells into which a stable (pCIN; BioTechniques 20 (1996): 102-110) vector containing either EP1 or EP3 cDNA has previously been transfected. Cells are cultured in suitable flasks containing culture medium such as DMEM:F-12 supplemented with 10% v/v foetal calf serum, 2 mM L-glutamine, 0.25 mg/ml geneticin, 100 μM flurbiprofen and 10 μg/ml puromycin.
For assay, cells are harvested using a proprietary reagent that dislodges cells such as Versene. Cells are re-suspended in a suitable quantity of fresh culture media for introduction into a 384-well plate. Following incubation for 24 hours at 37° C. the culture media is replaced with a medium containing Fluo-4 and the detergent pluronic acid, and a further incubation takes place. Concentrations of compounds are then added to the plate in order to construct concentration-effect curves. This may be performed on the FLIPR in order to assess the agonist properties of the compounds. Concentrations of PGE2 are then added to the plate in order to assess the antagonist properties of the compounds.
The data so generated may be analysed by means of a computerised curve-fitting routine. The concentration of compound that elicits a half-maximal inhibition of the calcium mobilisation induced by PGE2 (plC50) may then be estimated.

[1] = target: T2, human prostanoid EP1 receptor (Homo sapiens, UniProt P34995); test: Binding assay for the human prostanoid EP1 receptor (competition with [3H]-PGE2); conditions: negative logarithm10 of the IC50; competition with [3H]-PGE2, CHO-K1 cell membranes; averages of a number of experiments; read-out: pIC50 value (converted)
T2 construct: expressed in transfected cells; host or cells: CHO-K1 (membrane fraction)
T2 sequence (P34995 1-402): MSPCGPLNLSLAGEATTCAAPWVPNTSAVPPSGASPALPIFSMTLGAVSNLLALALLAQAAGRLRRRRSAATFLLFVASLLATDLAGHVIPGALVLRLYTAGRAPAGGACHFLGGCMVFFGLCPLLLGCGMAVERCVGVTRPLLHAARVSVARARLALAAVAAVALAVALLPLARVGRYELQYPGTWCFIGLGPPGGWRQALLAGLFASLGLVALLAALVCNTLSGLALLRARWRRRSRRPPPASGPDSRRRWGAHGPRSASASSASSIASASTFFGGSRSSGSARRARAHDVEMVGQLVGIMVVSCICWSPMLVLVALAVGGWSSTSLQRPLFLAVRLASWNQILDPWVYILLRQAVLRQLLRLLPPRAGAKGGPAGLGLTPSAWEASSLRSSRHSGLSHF
Experimental: Competition assay using [^3H]-PGE2.
Compound potencies are determined using a radioligand binding assay. In this assay compound potencies are determined from their ability to compete with tritiated prostaglandin E2 ([^3H]-PGE2) for binding to the human EP1 receptor.
This assay utilises Chinese hamster ovary-K1 (CHO-K1) cells into which a stable vector containing the EP1 cDNA has previously been transfected. Cells are cultured in suitable flasks containing culture medium such as DMEM:F-12 supplemented with 10% v/v foetal calf serum, 2 mM L-glutamine, 0.25 mg/ml geneticin, 10 μg/ml puromycin and 10 μM indomethacin.
Cells are detached from the culture flasks by incubation in calcium and magnesium free phosphate buffered saline containing 1 mM disodium ethylenediaminetetraacetic acid (Na2EDTA) and 10 μM indomethacin for 5 min. The cells are isolated by centrifugation at 250×g for 5mins and suspended in an ice cold buffer such as 50 mM Tris, 1 mM Na2EDTA, 140 mM NaCl, 10 μM indomethacin (pH 7.4). The cells are homogenised using a Polytron tissue disrupter (2×10s burst at full setting), centrifuged at 48,000×g for 20mins and the pellet containing the membrane fraction is washed (optional) three times by suspension and centrifugation at 48,000×g for 20mins. The final membrane pellet is suspended in an assay buffer such as 10 mM 2-[N-morpholino]ethanesulphonic acid, 1 mM Na2EDTA, 10 mM MgCl2 (pH 6). Aliquots are frozen at −80° C. until required.
For the binding assay the cell membranes, competing compounds and [^3H]-PGE2 (3 nM final assay concentration) are incubated in a final volume of 100 μl for 30 min at 30° C. All reagents are prepared in assay buffer. Reactions are terminated by rapid vacuum filtration over GF/B filters using a Brandell cell harvester. The filters are washed with ice cold assay buffer, dried and the radioactivity retained on the filters is measured by liquid scintillation counting in Packard TopCount scintillation counter.
The data are analysed using non linear curve fitting techniques to determine the concentration of compound producing 50% inhibition of specific binding (IC50).

human EP1 receptor = target: T3, human EP1 receptor (Homo sapiens, UniProt P34995); test: human EP1 calcium mobilisation assay; type: cell-based; conditions: negative logarithm10 of the antagonist dissociation constant; CHO-K1 cells, PGE2; free bases or sodium salts; averages of a number of experiments; read-out: functional pKi value (converted)
T3 construct: expressed in transfected cells; host or cells: CHO-K1
T3 sequence (P34995 1-402): T2 sequence (P34995 1-402)

SMILES	Ki (human EP3 receptor) [nM]	IC50 [1] [nM]	Ki (human EP1 receptor) [nM]
Cc1cc(OC(=O)NC2CCCC2)nn1Cc1cc(Cl)ccc1OCC(C)C [Example 52, 1-({5-Chloro-2-[(2-methylpropyl)oxy]phenyl}methyl)-5-methyl-1H-pyrazol-3-yl cyclopentylcarbamate]	158 to 316	–	–
Cc1cc(NC(=O)OC(C)C)nn1Cc1cc(Br)ccc1OCc1ccc(Cl)cc1Cl [Example 9, 1-Methylethyl {1-[(5-bromo-2-{[(2,4-dichlorophenyl)methyl]oxy}phenyl)methyl]-5-methyl-1H-pyrazol-3-yl]carbamate]	–	≤ 10	> 1000
Cc1cc(-c2cn3ccccc3n2)nn1Cc1cc(Cl)ccc1OCC(C)C [Example 364, 2-[1-({5-Chloro-2-[(2-methylpropyl)oxy]phenyl}methyl)-5-methyl-1H-pyrazol-3-yl]imidazo[1,2-a]pyridine hydrochloride]	158 to 316	–	–
Cc1cc(NC(=O)Cc2ccccc2)nn1Cc1cc(Cl)ccc1OCc1cc(F)c(F)cc1F [Example 126, N-{1-[(5-Chloro-2-{[(2,4,5-trifluorophenyl)methyl]oxy}phenyl)methyl]-5-methyl-1H-pyrazol-3-yl}-2-phenylacetamide]	–	≤ 10	> 1000
Cc1cc(N(C)C(=O)OC(C)(C)C)nn1Cc1cc(Cl)ccc1OCc1ccccc1 [Example 75, 1,1-Dimethylethyl[({5-chloro-2-[(phenylmethyl)oxy]phenyl}methyl)-5-methyl-1H-pyrazol-3-yl]methylcarbamate]	158 to 316	–	–
Cc1cc(N2Cc3ccccc3C2=O)nn1Cc1cc(Cl)ccc1OCC(C)C [Example 184, 2-[1-({5-Chloro-2-[(2-methylpropyl)oxy]phenyl}methyl)-5-methyl-1H-pyrazol-3-yl]-2,3-dihydro-1H-isoindol-1-one]	158 to 316	–	–
Cc1cc(N(C)C(=O)c2ccccc2)nn1Cc1cc(Cl)ccc1OCc1ccccc1 [Example 180, N-[1-({5-Chloro-2-[(phenylmethyl)oxy]phenyl}methyl)-5-methyl-1H-pyrazol-3-yl]-N-methylbenzamide]	158 to 316	–	–
Cc1cc(N2CCN(Cc3ccccn3)CC2=O)nn1Cc1cc(Cl)ccc1OCC(C)C [Example 227, 1-[1-({5-Chloro-2-[(2-methylpropyl)oxy]phenyl}methyl)-5-methyl-1H-pyrazol-3-yl]-4-(2-pyridinylmethyl)-2-piperazinone dihydrochloride]	158 to 316	–	–
Cc1cc(NC(=O)OC(C)(C)C)nn1Cc1cc(Br)ccc1OCc1ccc(F)cc1F [Example 6, 1,1-Dimethylethyl {1-[(5-bromo-2-{[(2,4-difluorophenyl)methyl]oxy}phenyl)methyl]-5-methyl-1H-pyrazol-3-yl}carbamate]	–	≤ 10	> 1000
Cc1cc(NC(=O)C(F)(F)F)nn1Cc1cc(Cl)ccc1OCC(C)C [Example 95, N-[1-({5-Chloro-2-[(2-methylpropyl)oxy]phenyl}methyl)-5-methyl-1H-pyrazol-3-yl]-2,2,2-trifluoroacetamide]	158 to 316	–	–
CCC(C)NC(=O)Oc1cc(C)n(Cc2cc(Cl)ccc2OCC(C)C)n1 (centres unmarked) [Example 50, 1-({5-Chloro-2-[(2-methylpropyl)oxy]phenyl}methyl)-5-methyl-1H-pyrazol-3-yl (1-methylpropyl)carbamate]	158 to 316	–	–
Cc1cc(NC(=O)Cc2ccccn2)nn1Cc1cc(Cl)ccc1OCc1ccc(Cl)cc1F [Example 118, N-{1-[(5-Chloro-2-{[(4-chloro-2-fluorophenyl)methyl]oxy}phenyl)methyl]-5-methyl-1H-pyrazol-3-yl}-2-(2-pyridinyl)acetamide]	–	≤ 10	–
Cc1cc(C(=O)Nc2c(F)cccc2F)nn1Cc1cc(Br)ccc1OCc1ccccc1 [Example 313, 1-({5-Bromo-2-[(phenylmethyl)oxy]phenyl}methyl)-N-(2,6-difluorophenyl)-5-methyl-1H-pyrazole-3-carobxamide]	–	≤ 10	–
Cc1cc(NC(=O)c2cccc(C=O)c2)nn1Cc1cc(Cl)ccc1OCC(C)C [Example 187, N-[1-({5-Chloro-2-[(2-methylpropyl)oxy]phenyl}methyl)-5-methyl-1H-pyrazol-3-yl]-3-formylbenzamide]	158 to 316	–	–
Cc1cc(-c2nnn[nH]2)nn1Cc1cc(Cl)ccc1OCc1ccccc1 [Example 353, 5-[1-({5-Chloro-2-[(phenylmethyl)oxy]phenyl}methyl)-5-methyl-1H-pyrazol-3-yl]-1H-tetrazole]	–	≤ 10	–
Cc1cc(NC(=O)CC(C)(C)C)nn1Cc1cc(Cl)ccc1OCc1ccc(F)cc1F [Example 132, N-{1-[(5-Chloro-2-{[(2,4-difluorophenyl)methyl]oxy}phenyl)methyl]-5-methyl-1H-pyrazol-3-yl}-3,3-dimethylbutanamide]	–	≤ 10	–
Cc1cc(NC(=O)c2ccccc2CO)nn1Cc1cc(Cl)ccc1OCC(C)C [Example 183, N-[1-({5-Chloro-2-[(2-methylpropyl)oxy]phenyl}methyl)-5-methyl-1H-pyrazol-3-yl]-2-(hydroxymethyl)benzamide]	158 to 316	–	–
Cc1cc(C(=O)Nc2ccc(CN(C)C)cc2)nn1Cc1cc(Cl)ccc1OCc1ccccc1 [Example 346, 1-({5-Chloro-2-[(phenylmethyl)oxy]phenyl}methyl)-N-{4-[(dimethylamino)methyl]phe-nyl}-5-methyl-1H-pyrazole-3-carboxamide hydrochloride]	–	≤ 10	–
Cc1cc(NC(=O)CC(C)(C)C)nn1Cc1cc(Cl)ccc1OCc1ccc(Cl)cc1 [Example 137, N-{1-[(5-Chloro-2-{[(4-chlorophenyl)methyl]oxy}phenyl)methyl]-5-methyl-1H-pyraozl-3-yl}-3,3-dimethylbutanamide]	–	≤ 10	–
CCOC(CNC(=O)c1cc(C)n(Cc2cc(Cl)ccc2OCC(C)C)n1)OCC [Example 387, N-[2,2-Bis(ethyloxy)ethyl]-1-({5-chloro-2-[(2-methylpropyl)oxy]phenyl}methyl)-5-methyl-1H-pyrazole-3-carboxamide]	158 to 316	–	–
